In patent publication US9211310B2, “Use of a Chinese medicine composition in preparing medicaments for treating secondary prevention of myocardial infarction” (TASLY PHARMACEUTICAL GROUP CO., LTD, priority 2010, dated 2015):

Test system: patients after acute myocardial infarction
Experiment: TCM symptom score, total and single (chest pain, chest tightness, short breath, fatigue, palpitation, spontaneous perspiration, pale complexion), same clinical trial
Assay type: in vivo, human
Parameters: total score of TCM symptom, Mean / total score of TCM symptom, Min / total score of TCM symptom, Max / total score of TCM symptom, Md / change of total score of TCM symptom, Mean / change of total score of TCM symptom, Max / change of total score of TCM symptom, Md: scale not given here
Description: 3508 patients who were in accordance with the diagnostic standards of AMI for 28 days to 2 years and differentiated as Qi deficiency and blood stagnation syndrome by TCM were studied. 0.5 g Chinese medicine composition prepared by the method of EXAMPLE 1 (Coded as QSYQ) was administrated half an hour after meal, 3 times per day.
They included the overall survival time, angina pectoris score, TCM symptom score and life quality score, where angina pectoris score, TCM symptom score and life quality score were evaluated at randomization, in 1st, 3rd, 6th, 9th, 12th month after treatment and 18th month after follow-up.
The analysis method referred to the angina pectoris score.

CC(=O)Oc1ccccc1C(=O)O [Control group, aspirine]
change of pale complexion −1, number of patients (FAS, Follow-up-baseline): 39 | change of pale complexion −1, percent of patients (FAS, Follow-up-baseline): (2.75%) | change of palpitation 0, number of patients (FAS, Follow-up-baseline): 690 | change of palpitation 0, percent of patients (FAS, Follow-up-baseline): (48.46%) | change of palpitation 1, number of patients (FAS, Follow-up-baseline): 528 | change of palpitation 1, percent of patients (FAS, Follow-up-baseline): (37.08%) | change of palpitation 2, number of patients (FAS, Follow-up-baseline): 97 | change of palpitation 2, percent of patients (FAS, Follow-up-baseline): (6.81%) | change of palpitation 3, number of patients (FAS, Follow-up-baseline): 15 | change of palpitation 3, percent of patients (FAS, Follow-up-baseline): (1.05%) | change of palpitation −1, number of patients (FAS, Follow-up-baseline): 90 | change of palpitation −1, percent of patients (FAS, Follow-up-baseline): (6.32%) | change of palpitation −2, number of patients (FAS, Follow-up-baseline): 3 | change of palpitation −2, percent of patients (FAS, Follow-up-baseline): (0.21%) | change of palpitation −3, number of patients (FAS, Follow-up-baseline): 1 | change of palpitation −3, percent of patients (FAS, Follow-up-baseline): (0.07%) | change of short breath 0, % of patients (FAS, Follow-up-baseline): (52.21%) | change of short breath 0, number of patients (FAS, Follow-up-baseline): 744 | change of short breath 2, % of patients (FAS, Follow-up-baseline): (36.42%) | change of short breath 2, number of patients (FAS, Follow-up-baseline): 519 | change of short breath 4, % of patients (FAS, Follow-up-baseline): (5.47%) | change of short breath 4, number of patients (FAS, Follow-up-baseline): 78 | change of short breath 6, % of patients (FAS, Follow-up-baseline): (0.77%) | change of short breath 6, number of patients (FAS, Follow-up-baseline): 11 | change of short breath −2, % of patients (FAS, Follow-up-baseline): (4.98%) | change of short breath −2, number of patients (FAS, Follow-up-baseline): 71 | change of short breath −4, % of patients (FAS, Follow-up-baseline): (0.00%) | change of short breath −4, number of patients (FAS, Follow-up-baseline): 0 | change of short breath −6, % of patients (FAS, Follow-up-baseline): (0.14%) | change of short breath −6, number of patients (FAS, Follow-up-baseline): 2 | change of spontaneous perspiration 0, number of patients (FAS, Follow-up-baseline): 656 | change of spontaneous perspiration 0, percent of patients (FAS, Follow-up-baseline): (46.07%) | change of spontaneous perspiration 1, number of patients (FAS, Follow-up-baseline): 466 | change of spontaneous perspiration 1, percent of patients (FAS, Follow-up-baseline): (32.72%) | change of spontaneous perspiration 2, number of patients (FAS, Follow-up-baseline): 141 | change of spontaneous perspiration 2, percent of patients (FAS, Follow-up-baseline): (9.90%) | change of spontaneous perspiration 3, number of patients (FAS, Follow-up-baseline): 32 | change of spontaneous perspiration 3, percent of patients (FAS, Follow-up-baseline): (2.25%) | change of spontaneous perspiration −1, percent of patients (FAS, Follow-up-baseline): (8.36%) | change of spontaneous perspiration −2, number of patients (FAS, Follow-up-baseline): 8 | change of spontaneous perspiration −2, percent of patients (FAS, Follow-up-baseline): (0.56%) | change of spontaneous perspiration −3, number of patients (FAS, Follow-up-baseline): 2 | change of spontaneous perspiration −3, percent of patients (FAS, Follow-up-baseline): (0.14%) | change of total score of TCM symptom, Max (FAS, Follow-up-baseline): 27.00 | change of total score of TCM symptom, Md (FAS, Follow-up-baseline): −5.00 | change of total score of TCM symptom, Mean (FAS, Follow-up-baseline): −6.18 | change of total score of TCM symptom, Min (FAS, Follow-up-baseline): −29.00 | change of chest pain score 0, number of patients (Follow-up-baseline, FAS): 769 | change of chest pain score 0, percent of patients (Follow-up-baseline, FAS): (54.08%) | change of chest pain score 3, number of patients (Follow-up-baseline, FAS): 426 | change of chest pain score 3, percent of patients (Follow-up-baseline, FAS): (29.96%) | change of chest pain score 6, number of patients (Follow-up-baseline, FAS): 158 | change of chest pain score 6, percent of patients (Follow-up-baseline, FAS): (11.11%) | change of chest pain score 9, number of patients (Follow-up-baseline, FAS): 9 | change of chest pain score 9, percent of patients (Follow-up-baseline, FAS): (0.63%) | change of chest pain score −2, number of patients (Follow-up-baseline, FAS): 1 | change of chest pain score −2, percent of patients (Follow-up-baseline, FAS): (0.07%) | change of chest pain score −3, number of patients (Follow-up-baseline, FAS): 47 | change of chest pain score −3, percent of patients (Follow-up-baseline, FAS): (3.31%) | change of chest pain score −6, number of patients (Follow-up-baseline, FAS): 11 | change of chest pain score −6, percent of patients (Follow-up-baseline, FAS): (0.77%) | change of chest pain score −9, number of patients (Follow-up-baseline, FAS): 1 | change of chest pain score −9, percent of patients (Follow-up-baseline, FAS): (0.07%) | change of chest tightness score 0, number of patients (Follow-up-baseline, FAS): 728 | change of chest tightness score 0, percent of patients (Follow-up-baseline, FAS): (51.09%) | change of chest tightness score 1, number of patients (Follow-up-baseline, FAS): 1 | change of chest tightness score 1, percent of patients (Follow-up-baseline, FAS): (0.07%) | change of chest tightness score 3, number of patients (Follow-up-baseline, FAS): 544 | change of chest tightness score 3, percent of patients (Follow-up-baseline, FAS): (38.18%) | change of chest tightness score 6, number of patients (Follow-up-baseline, FAS): 87 | change of chest tightness score 6, percent of patients (Follow-up-baseline, FAS): (6.11%) | change of chest tightness score 9, number of patients (Follow-up-baseline, FAS): 5 | change of chest tightness score 9, percent of patients (Follow-up-baseline, FAS): (0.35%) | change of chest tightness score −3, number of patients (Follow-up-baseline, FAS): 55 | change of chest tightness score −3, percent of patients (Follow-up-baseline, FAS): (3.86%) | change of chest tightness score −6, number of patients (Follow-up-baseline, FAS): 4 | change of chest tightness score −6, percent of patients (Follow-up-baseline, FAS): (0.28%) | change of chest tightness score −9, number of patients (Follow-up-baseline, FAS): 1 | change of chest tightness score −9, percent of patients (Follow-up-baseline, FAS): (0.07%) | change of chest pain score 0, number of patients (Follow-up-baseline, PP): 750 | change of chest pain score 0, percent of patients (Follow-up-baseline, PP): (54.03%) | change of chest pain score 3, number of patients (Follow-up-baseline, PP): 417 | change of chest pain score 3, percent of patients (Follow-up-baseline, PP): (30.04%) | change of chest pain score 6, number of patients (Follow-up-baseline, PP): 155 | change of chest pain score 6, percent of patients (Follow-up-baseline, PP): (11.17%) | change of chest pain score 9, number of patients (Follow-up-baseline, PP): 8 | change of chest pain score 9, percent of patients (Follow-up-baseline, PP): (0.58%) | change of chest pain score −2, number of patients (Follow-up-baseline, PP): 1 | change of chest pain score −2, percent of patients (Follow-up-baseline, PP): (0.07%) | change of chest pain score −3, number of patients (Follow-up-baseline, PP): 47 | change of chest pain score −3, percent of patients (Follow-up-baseline, PP): (3.39%) | change of chest pain score −6, number of patients (Follow-up-baseline, PP): 9 | change of chest pain score −6, percent of patients (Follow-up-baseline, PP): (0.65%) | change of chest pain score −9, number of patients (Follow-up-baseline, PP): 1 | change of chest pain score −9, percent of patients (Follow-up-baseline, PP): (0.07%) | change of chest tightness score 0, number of patients (Follow-up-baseline, PP): 712 | change of chest tightness score 0, percent of patients (Follow-up-baseline, PP): (51.19%) | change of chest tightness score 1, number of patients (Follow-up-baseline, PP): 1 | change of chest tightness score 1, percent of patients (Follow-up-baseline, PP): (0.07%) | change of chest tightness score 3, number of patients (Follow-up-baseline, PP): 528 | change of chest tightness score 3, percent of patients (Follow-up-baseline, PP): (37.96%) | change of chest tightness score 6, number of patients (Follow-up-baseline, PP): 86 | change of chest tightness score 6, percent of patients (Follow-up-baseline, PP): (6.18%) | change of chest tightness score 9, number of patients (Follow-up-baseline, PP): 5 | change of chest tightness score 9, percent of patients (Follow-up-baseline, PP): (0.36%) | change of chest tightness score −3, number of patients (Follow-up-baseline, PP): 54 | change of chest tightness score −3, percent of patients (Follow-up-baseline, PP): (3.88%) | change of chest tightness score −6, number of patients (Follow-up-baseline, PP): 4 | change of chest tightness score −6, percent of patients (Follow-up-baseline, PP): (0.29%) | change of chest tightness score −9, number of patients (Follow-up-baseline, PP): 1 | change of chest tightness score −9, percent of patients (Follow-up-baseline, PP): (0.07%) | chest pain score 0, number of patients (Follow-up, FAS): 754 | chest pain score 0, percent of patients (Follow-up, FAS): (52.84%) | chest pain score 2, number of patients (Follow-up, FAS): 1 | chest pain score 2, percent of patients (Follow-up, FAS): (0.07%) | chest pain score 3, number of patients (Follow-up, FAS): 479 | chest pain score 3, percent of patients (Follow-up, FAS): (33.57%) | chest pain score 6, number of patients (Follow-up, FAS): 192 | chest pain score 6, percent of patients (Follow-up, FAS): (13.45%) | chest pain score 9, number of patients (Follow-up, FAS): 1 | chest pain score 9, percent of patients (Follow-up, FAS): (0.07%) | chest tightness score 0, number of patients (Follow-up, FAS): 754 | chest tightness score 0, percent of patients (Follow-up, FAS): (52.84%) | chest tightness score 2, number of patients (Follow-up, FAS): 1
